Results from patent US12570655B2, “Cysteine covalent modifiers of AKT1 and uses thereof” (Terremoto Biosciences, Inc., priority 2023, dated 2026).
Read-outs that look alike come from different tables or passages of the source.

What was measured:
Type in all cases: cell-based
[1] = biological target: T1, AKT2 (Homo sapiens, UniProt P31751); test: Live cell AKT2 target engagement by NanoBRET competitive probe displacement; details: HEK293 cells transfected with kinase-NanoLuciferase fusion, 2 h at 37° C.
T1 construct: expressed in transfected cells; host or cells: HEK293
Method in brief: (§1)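 IC50 reflects displacement of a fluorescent ATP-competitive tracer, dosed near its EC50, from kinase–NanoLuciferase fusions in live HEK293 cells. Cells were incubated with compound and tracer for 2 h at 37 °C, then E600/E460 BRET was read.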

[2] = biological target: T2, AKT1 E17K (Homo sapiens, UniProt P31749, E17K); test: Live cell AKT1 E17K target engagement by NanoBRET competitive probe displacement; details: HEK293 cells transfected with kinase-NanoLuciferase fusion, 2 h at 37° C.
T2 construct: expressed in transfected cells; host or cells: HEK293
Method in brief: as §1

[3] = test system: LAPC4 prostate cancer cells; test: Antiproliferative effects in LAPC4 cells (CellTiter Glo); details: LAPC4 cells (AKT1 E17K allele), read-out: LAPC4 proliferation IC50
Method in brief: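 Seed 1,000 cells/well in IMDM/12% FBS/1% P/S; add compound dilutions (DMSO); incubate 72 h; read intracellular ATP with CellTiter Glo; fit luminescence to log(inhibitor)-response Hill curve for IC50.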

[4] = biological target: T3, AKT1 WT (Homo sapiens, UniProt P31749); test: Live cell AKT1 WT target engagement by NanoBRET competitive probe displacement; details: HEK293 cells transfected with kinase-NanoLuciferase fusion, 2 h at 37° C.
T3 construct: expressed in transfected cells; host or cells: HEK293
Method in brief: as §1

T1 sequence (P31751 whole entry, the tested form may be a part): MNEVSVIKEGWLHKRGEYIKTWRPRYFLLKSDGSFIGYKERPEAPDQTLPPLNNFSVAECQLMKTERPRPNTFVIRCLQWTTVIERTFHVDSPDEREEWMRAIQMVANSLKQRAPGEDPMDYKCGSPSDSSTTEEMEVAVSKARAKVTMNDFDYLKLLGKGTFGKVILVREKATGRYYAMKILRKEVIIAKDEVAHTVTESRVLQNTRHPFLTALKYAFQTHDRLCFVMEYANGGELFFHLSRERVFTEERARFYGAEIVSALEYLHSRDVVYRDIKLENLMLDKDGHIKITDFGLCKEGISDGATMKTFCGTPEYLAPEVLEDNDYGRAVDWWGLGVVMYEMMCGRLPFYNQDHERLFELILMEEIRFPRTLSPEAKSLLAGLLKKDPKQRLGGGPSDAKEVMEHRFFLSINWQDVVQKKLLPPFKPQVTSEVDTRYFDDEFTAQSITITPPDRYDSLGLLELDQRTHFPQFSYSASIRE
T2 sequence (P31749 whole entry E17K, the tested form may be a part): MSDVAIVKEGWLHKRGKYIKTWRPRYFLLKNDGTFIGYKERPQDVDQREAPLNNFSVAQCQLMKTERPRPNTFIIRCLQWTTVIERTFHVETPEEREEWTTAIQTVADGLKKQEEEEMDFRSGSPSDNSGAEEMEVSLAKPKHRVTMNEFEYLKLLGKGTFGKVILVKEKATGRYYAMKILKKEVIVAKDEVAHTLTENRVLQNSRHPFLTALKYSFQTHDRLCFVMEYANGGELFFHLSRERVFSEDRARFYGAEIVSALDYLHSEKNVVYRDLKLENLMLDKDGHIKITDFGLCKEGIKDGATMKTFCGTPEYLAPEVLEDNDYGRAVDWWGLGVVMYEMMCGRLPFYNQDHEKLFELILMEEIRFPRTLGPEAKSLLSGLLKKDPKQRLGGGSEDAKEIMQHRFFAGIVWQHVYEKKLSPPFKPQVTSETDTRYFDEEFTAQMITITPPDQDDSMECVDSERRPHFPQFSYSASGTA
T3 sequence (P31749 whole entry, the tested form may be a part): as the sequence (P31749 whole entry E17K, the tested form may be a part) above, with K17E counted along it

Row | SMILES | IC50 [1] | IC50 [2] | IC50 ([3]; 72 h) | IC50 [4] | IC50 ([3]; Homo sapiens, LAPC4, 72 h)
1 | C=CC(=O)N1CCC(N[C@H]2CCc3cc(-n4c(-c5cccnc5N)nc5ccc(-n6cccn6)nc54)ccc32)CC12CCC2 (single isomer, unassigned) [Example 93, 1-((*)-8-(((S)-5-(2-(2-aminopyridin-3-yl)-5-(1H-pyrazol-1-yl)-3H-imidazo[4,5-b]pyridin-3-yl)-2,3-dihydro-1H-inden-1-yl)amino)-5-azaspiro[3.5]nonan-5-yl)prop-2-en-1-one] | 11.4 nM | 6.16 nM | 5.02 nM | 5.63 nM | –
2 | C=CC(=O)N1CCC(N[C@H]2CCc3cc(-n4c(-c5cccnc5N)nc5ccc(C6CC6)nc54)ccc32)C(F)C1 (mixture of isomers) [Example 175, 1-(4-(((S)-5-(2-(2-aminopyridin-3-yl)-5-cyclopropyl-3H-imidazo[4,5-b]pyridin-3-yl)-2,3-dihydro-1H-inden-1-yl)amino)-3-fluoropiperidin-1-yl)prop-2-en-1-one] | 123 nM | 17.9 nM | – | 820 nM | 271 nM
3 | C=CC(=O)N1CCN(NC2CCc3cc(-n4c(-c5cccnc5N)nc5ccc(-n6cccn6)nc54)ccc32)CC1 (single isomer, unassigned) [Example 148, (*)-1-(4-((5-(2-(2-aminopyridin-3-yl)-5-(1H-pyrazol-1-yl)-3H-imidazo[4,5-b]pyridin-3-yl)-2,3-dihydro-1H-inden-1-yl)amino)piperazin-1-yl)prop-2-en-1-one] | 61 nM | 38 nM | 93.3 nM | 12.5 nM | –
4 | C=CC(=O)N1CC2CC[C@@H]1CC2N[C@H]1CCc2cc(-n3c(-c4cccnc4N)nc4ccc(-n5cccn5)nc43)ccc21 (single isomer, unassigned) [Example 132, 1-[(1R,4R,5*)-5-{[(1S)-5-[2-(2-aminopyridin-3-yl)-5-(pyrazol-1-yl)imidazo[4,5-b]pyridin-3-yl]-2,3-dihydro-1H-inden-1-yl]amino}-2-azabicyclo[2.2.2]octan-2-yl]prop-2-en-1-one] | 2250 nM | 326 nM | 1510 nM | 97.5 nM | –
5 | C=CC(=O)N1CCC2(CC1)CC(N[C@H]1CCc3cc(-n4c(-c5cccnc5N)nc5ccc(-n6cccn6)nc54)ccc31)C2 [Example 30, 1-(2-{[(1S)-5-[2-(2-aminopyridin-3-yl)-5-(pyrazol-1-yl)imidazo[4,5-b]pyridin-3-yl]-2,3-dihydro-1H-inden-1-yl]amino}-7-azaspiro[3.5]nonan-7-yl)prop-2-en-1-one] | 4830 nM | > 1000 nM | – | 296 nM | 2600 nM
6 | C=CC(=O)N1CCC(N[C@H]2CCc3cc(-n4c(-c5cccnc5N)nc5ccc(-c6cnccn6)nc54)ccc32)CC1 [Example 120, (S)-1-(4-((5-(2-(2-aminopyridin-3-yl)-5-(pyrazin-2-yl)-3H-imidazo[4,5-b]pyridin-3-yl)-2,3-dihydro-1H-inden-1-yl)amino)piperidin-1-yl)prop-2-en-1-one] | 885 nM | 185 nM | – | 23.6 nM | 814 nM
7 | C=CC(=O)N1CCC(N[C@H]2CCc3cc(-n4c(-c5cccnc5N)nc5ccc(-n6cccn6)nc54)ccc3C2)CC1 [Example 296, 1-(4-{[(2S)-6-[2-(2-aminopyridin-3-yl)-5-(pyrazol-1-yl)imidazo[4,5-b]pyridin-3-yl]-1,2,3,4-tetrahydronaphthalen-2-yl]amino}piperidin-1-yl)prop-2-en-1-one] | 36.6 nM | 33.2 nM | – | 93.4 nM | 59.1 nM
8 | C=CC(=O)N1CCC(N[C@@H]2c3ccc(-n4c(-c5cccnc5N)nc5ccc(-n6cccn6)nc54)cc3CC2F)CC1C(F)F (single isomer, unassigned) [Example 302, 1-((2*,4*)-4-(((1R,2*)-5-(2-(2-aminopyridin-3-yl)-5-(1H-pyrazol-1-yl)-3H-imidazo[4,5-b]pyridin-3-yl)-2-fluoro-2,3-dihydro-1H-inden-1-yl)amino)-2-(difluoromethyl)piperidin-1-yl)prop-2-en-1-one] | 33.3 nM | 16.9 nM | 129 nM | 82.1 nM | –
9 | C=CC(=O)N1CCC(N[C@H]2CCc3cc(-n4c(-c5cccnc5N)nc5ccc(-n6cccn6)nc54)ccc32)C[C@@H]1COC (single isomer, unassigned) [Example 164, 1-((2R,4*)-4-(((S)-5-(2-(2-aminopyridin-3-yl)-5-(1H-pyrazol-1-yl)-3H-imidazo[4,5-b]pyridin-3-yl)-2,3-dihydro-1H-inden-1-yl)amino)-2-(methoxymethyl)piperidin-1-yl)prop-2-en-1-one] | 4100 nM | 475 nM | 489 nM | 58 nM | –
10 | C=CC(=O)N1CCC(N[C@H]2CCc3cc(-n4c(-c5cccnc5N)nc5ccc(C6CC6)nc54)ccc32)C[C@H]1C (single isomer, unassigned) [Example 211, 1-((2R,4*)-4-(((S)-5-(2-(2-aminopyridin-3-yl)-5-cyclopropyl-3H-imidazo[4,5-b]pyridin-3-yl)-2,3-dihydro-1H-inden-1-yl)amino)-2-methylpiperidin-1-yl)prop-2-en-1-one] | 79.8 nM | 23.7 nM | 319 nM | 1100 nM | –
11 | C=CC(=O)N1CCC(N[C@@H]2c3ccc(-n4c(-c5cccnc5N)nc5ccc(-n6ccc(C7CC7)n6)nc54)cc3CC2F)CC1 (single isomer, unassigned) [Example 297, 1-(4-(((1R,2*)-5-(2-(2-aminopyridin-3-yl)-5-(3-cyclopropyl-1H-pyrazol-1-yl)-3H-imidazo[4,5-b]pyridin-3-yl)-2-fluoro-2,3-dihydro-1H-inden-1-yl)amino)piperidin-1-yl)prop-2-en-1-one] | 108 nM | 23.8 nM | – | 588 nM | 509 nM
12 | C=CC(=O)N1CC2COC(C1)C2N[C@H]1CCc2cc(-n3c(-c4cccnc4N)nc4ccc(-n5cccn5)nc43)ccc21 (stereo partly drawn) [Example 224, 1-(8-{[(1S)-5-[2-(2-aminopyridin-3-yl)-5-(pyrazol-1-yl)imidazo[4,5-b]pyridin-3-yl]-2,3-dihydro-1H-inden-1-yl]amino}-6-oxa-3-azabicyclo[3.2.1]octan-3-yl)prop-2-en-1-one] | 256 nM | 70.6 nM | – | 1240 nM | 719 nM
13 | C=CC(=O)N1CCC(N[C@@H]2CCc3cc(-n4c(-c5cccnc5N)nc5ccc(-n6cccn6)nc54)ccc32)CC1 [Example 149, 1-(4-{[(1R)-5-[2-(2-aminopyridin-3-yl)-5-(pyrazol-1-yl)imidazo[4,5-b]pyridin-3-yl]-2,3-dihydro-1H-inden-1-yl]amino}piperidin-1-yl)prop-2-en-1-one] | 189 nM | 60.8 nM | – | 23.5 nM | 109 nM
14 | C=CC(=O)N1CCC(N[C@H]2CCc3cc(-n4c(-c5cccnc5N)nc5ccc(-n6cccn6)nc54)ccc32)C(OC)C1 (single isomer, unassigned) [Example 116, 1-((3*,4*)-4-(((S)-5-(2-(2-aminopyridin-3-yl)-5-(1H-pyrazol-1-yl)-3H-imidazo[4,5-b]pyridin-3-yl)-2,3-dihydro-1H-inden-1-yl)amino)-3-methoxypiperidin-1-yl)prop-2-en-1-one] | 942 nM | 339 nM | 422 nM | 32.1 nM | –
15 | C=CC(=O)N1CCC(N[C@H]2CCc3cc(-n4c(-c5cccnc5N)nc5ccc(C6CC(F)(F)C6)nc54)ccc32)CC1 [Example 227, 1-(4-{[(1S)-5-[2-(2-aminopyridin-3-yl)-5-(3,3-difluorocyclobutyl)imidazo[4,5-b]pyridin-3-yl]-2,3-dihydro-1H-inden-1-yl]amino}piperidin-1-yl)prop-2-en-1-one] | 283 nM | 39 nM | – | 703 nM | 540 nM
16 | C=CC(=O)N1CCC(N[C@H]2CCc3cc(-n4c(-c5cccnc5N)nc5ccc(-n6cccn6)nc54)ccc32)C(F)C1 (single isomer, unassigned) [Example 104, 1-((3*,4*)-4-(((S)-5-(2-(2-aminopyridin-3-yl)-5-(1H-pyrazol-1-yl)-3H-imidazo[4,5-b]pyridin-3-yl)-2,3-dihydro-1H-inden-1-yl)amino)-3-fluoropiperidin-1-yl)prop-2-en-1-one] | 92.7 nM | 20.6 nM | 120 nM | 4.52 nM | –
17 | C=CC(=O)Nc1cc(C(=O)N[C@H]2CCc3cc(-n4c(-c5cccnc5N)nc5ccc(-n6cccn6)nc54)ccc32)ccn1 [Example 11, (S)-2-acrylamido-N-(5-(2-(2-aminopyridin-3-yl)-5-(1H-pyrazol-1-yl)-3H-imidazo[4,5-b]pyridin-3-yl)-2,3-dihydro-1H-inden-1-yl)isonicotinamide] | 25.9 nM | 7.03 nM | – | 4.29 nM | 650 nM
18 | C=CC(=O)N1CCC(N[C@H]2CCc3cc(-n4c(-c5cccnc5N)nc5ccc(N6CCCOCC6)nc54)ccc32)CC1 [Example 205, 1-(4-{[(1S)-5-[2-(2-aminopyridin-3-yl)-5-(1,4-oxazepan-4-yl)imidazo[4,5-b]pyridin-3-yl]-2,3-dihydro-1H-inden-1-yl]amino}piperidin-1-yl)prop-2-en-1-one] | 835 nM | 112 nM | – | 1740 nM | 1190 nM
